Consider 15 compounds from patent US5756423A, “Method of controlling plants by inhibition of farnesyl pyrophosphate synthase” (Zeneca Limited, priority 1997, dated 1998).

One may read the IC50 as the concentration that inhibits the measured activity by half.

For experiment [1], the system named is wild oat (Avena fatua) (AVEFA). Description: post-emergent herbicidal test, wild oat. In kind it is in vivo. As to conditions: for pest or weed control at 1000 g/ha / pest or weed control at 4000 g/ha: Avena fatua, post-emergence, read-out: AVEFA percent control; for pest or weed control at 4000 g/ha: 4.0 kg/ha. An outline of the steps: (§1)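 Foliar spray, 1 and 4 kg/ha, 0.5% v/v Tween 20 aqueous; grasses 3–4 leaf, broadleaves 1–2 leaf stage, grown 10–12 d. Greenhouse 29/21 °C, 14 h light. Visual % control vs untreated, 17–21 d after treatment.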

Experiment [2] relates to wild mustard (Brassica kaber), also known as Sinapis arvensis (SINAR). The experiment can be described thus: post-emergent herbicidal test, wild mustard. To be noted: for pest or weed control at 1000 g/ha / pest or weed control at 4000 g/ha: Brassica, post-emergence, read-out: SINAR percent control; for pest or weed control at 4000 g/ha: 4.0 kg/ha. In kind it is in vivo. In a few lines: as §1

In experiment [3] the test system is green foxtail (Setaria viridis) (SETVI). Description: post-emergent herbicidal test, green foxtail. In kind it is in vivo. As to conditions: for pest or weed control at 1000 g/ha / pest or weed control at 4000 g/ha: Setaria viridis, post-emergence, read-out: SETVI percent control; for pest or weed control at 4000 g/ha: 4.0 kg/ha. An outline of the steps:
as §1

In experiment [4] the test system is barnyard grass (Enchinochloa crusgalli) (ECHCG). Description: post-emergent herbicidal test, barnyard grass. In kind it is in vivo. To be noted: for pest or weed control at 1000 g/ha / pest or weed control at 4000 g/ha: Echinochloa crus-galli, post-emergence, read-out: ECHCG percent control; for pest or weed control at 4000 g/ha: 4.0 kg/ha. An outline of the steps: as §1

Experiment [5] has as its system morningglory (Ipomoea spp.) (IPOSS). Description: post-emergent herbicidal test, morningglory. To be noted: for pest or weed control at 1000 g/ha / pest or weed control at 4000 g/ha: Ipomoea, post-emergence, read-out: IPOSS percent control; for pest or weed control at 4000 g/ha: 4.0 kg/ha. In kind it is in vivo. An outline of the steps:
as §1

Experiment [6] deals with velvetleaf (Abutilon theophrasti) (ABUTH). The experiment can be described thus: post-emergent herbicidal test, velvetleaf. To be noted: for pest or weed control at 1000 g/ha / pest or weed control at 4000 g/ha: Abutilon theophrasti, post-emergence, read-out: ABUTH percent control; for pest or weed control at 4000 g/ha: 4.0 kg/ha. In kind it is in vivo. In a few lines: as §1

Experiment [7] has as its system yellow nutsedge (Cyperus esculentus) (CYPES). The experiment can be described thus: post-emergent herbicidal test, yellow nutsedge. To be noted: for pest or weed control at 1000 g/ha / pest or weed control at 4000 g/ha: Cyperus, post-emergence, read-out: CYPES percent control; for pest or weed control at 4000 g/ha: 4.0 kg/ha. In kind it is in vivo. In a few lines: as §1

The test system of experiment [8] is farnesyl pyrophosphate synthase in daffodil chromoplasts. The experiment can be described thus: inhibition of farnesyl pyrophosphate synthase in daffodil chromoplasts (14C-isopentenyl pyrophosphate incorporation). In kind it is biochemical, Narcissus pseudonarcissus. As to conditions: unit inferred, IC50 values in nM, read-out: IC50. In a few lines:
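Daffodil chromoplasts in pH 7.7 sucrose/MgCl2/HEPES buffer with cysteine, NaF and BSA, started with ~3 micromolar 14C-isopentenyl pyrophosphate, 30 min at 30° C. Butanol-extractable radioactivity counted by scintillation; % residual activity calculated against zero-time and end-point no-inhibitor controls.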

[9] abbreviates: post-emergent, 1.0 kg/ha (*), 17-21 days after application.
Setting [10] is: post-emergent, 17-21 days after application.

Read-outs that look alike come from different tables or passages of the source.

As for `CCCCN(CCCC)CC(P(=O)(O)O)P(=O)(O)O` [Compound 24], the pest or weed control at 1000 g/ha in experiment [1] (setting [9]) was 98%; in experiment [2] (setting [9]), 30%; in experiment [3] (setting [9]) it was 85%; in experiment [4] (setting [9]), 98%; in experiment [5] (setting [9]), 5%; in experiment [6] (setting [9]) it was 0%. Further, the pest or weed control at 1000 g/ha in experiment [7] (setting [9]) amounted to 10%. Further, the IC50 in experiment [8] (Table I) and in experiment [8] (Table II) was 190 nM throughout.
As for `CNCC(P(=O)(O)O)P(=O)(O)O` [Compound 25], the pest or weed control at 1000 g/ha in experiment [1] was 100%; in experiment [2], 100%; in experiment [3], 100%; in experiment [4] it was 100%; in experiment [5], 90%; in experiment [6], 98%. The pest or weed control at 1000 g/ha in experiment [7] turned out to be 85%. Moreover, the IC50 in experiment [8] (Table I) and in experiment [8] (Table II) was 1680 nM in each case.
Consider `CC(NCC(P(=O)(O)O)P(=O)(O)O)c1ccccc1` (stereo not drawn) [Compound 26], for which the pest or weed control at 1000 g/ha in experiment [1] (setting [9]) was found to be 80%; in experiment [4] (setting [9]), 80%; in experiment [5] (setting [9]) it was 10%. This compound returned an SINAR percent control in experiment [2] (setting [9]) of 40%. Moreover, the SETVI percent control in experiment [3] (setting [9]) turned out to be 60%. The ABUTH percent control in experiment [6] (setting [9]) worked out at 20%. In experiment [7] (setting [9]), this compound gave a CYPES percent control of 5%. Also, the IC50 in experiment [8] (Table I) and in experiment [8] (Table II) was 1430 nM each time.
Regarding `CC(NCC(P(=O)(O)O)P(=O)(O)O)c1ccccc1` (stereo not drawn) [Compound 27], in experiment [1] (setting [9]), the AVEFA percent control stood at 80%. The SINAR percent control in experiment [2] (setting [9]) was found to be 100%. The same compound came in with an SETVI percent control in experiment [3] (setting [9]) of 90%. The ECHCG percent control in experiment [4] (setting [9]) turned out to be 90%. The IPOSS percent control in experiment [5] (setting [9]) was 5%. Besides, in experiment [6] (setting [9]), the ABUTH percent control was 75%. For the same compound, the CYPES percent control in experiment [7] (setting [9]) came out at 75%. Also, the IC50 in experiment [8] (Table I) and in experiment [8] (Table II) was 1230 nM each time.
Consider `O=P(O)(O)C(CNCCc1ccccc1)P(=O)(O)O` [Compound 28], for which the pest or weed control at 1000 g/ha worked out at 60% in experiment [1] (setting [9]); 50% in experiment [2] (setting [9]); 30% in experiment [3] (setting [9]); 5% in experiment [4] (setting [9]); 5% in experiment [5] (setting [9]); 5% in experiment [6] (setting [9]). Moreover, the pest or weed control at 1000 g/ha in experiment [7] (setting [9]) stood at 10%. In addition, the IC50 in experiment [8] (Table I) and in experiment [8] (Table II) was 1410 nM each time.
Turning to `O=P(O)(O)C(CN1CCCCCC1)P(=O)(O)O` [Compound 29], the pest or weed control at 1000 g/ha in experiment [1] (setting [9]) was determined as 60%; in experiment [2] (setting [9]), 85%; in experiment [3] (setting [9]), 60%; in experiment [4] (setting [9]), 60%; in experiment [5] (setting [9]), 15%; in experiment [6] (setting [9]), 0%. For the same compound, the pest or weed control at 1000 g/ha in experiment [7] (setting [9]) amounted to 0%. The IC50 in experiment [8] (Table I) and in experiment [8] (Table II) was 360 nM each time.
In the case of `CC1CCN(CC(P(=O)(O)O)P(=O)(O)O)CC1` [Compound 30], the pest or weed control at 1000 g/ha in experiment [1] (setting [9]) came out at 90%; in experiment [2] (setting [9]), 100%; in experiment [3] (setting [9]), 95%; in experiment [4] (setting [9]), 90%; in experiment [5] (setting [9]) it was 30%; in experiment [6] (setting [9]), 5%. The pest or weed control at 1000 g/ha in experiment [7] (setting [9]) is 5%. The IC50 in experiment [8] (Table I) and in experiment [8] (Table II) was 266 nM in each case.
Turning to `Cc1cccnc1NCC(P(=O)(O)O)P(=O)(O)O` [Compound 31], the pest or weed control at 4000 g/ha in experiment [1] (setting [10]), in experiment [2] (setting [10]), in experiment [3] (setting [10]), in experiment [4] (setting [10]), in experiment [5] (setting [10]) and in experiment [6] (setting [10]) was 0% throughout. For the same compound, in experiment [7] (setting [10]), the pest or weed control at 4000 g/ha turned out to be 0%. The IC50 in experiment [8] (Table I) and in experiment [8] (Table II) was 6600 nM in each case.
`CCCN(C)CC(P(=O)(O)O)P(=O)(O)O` [Compound 32]: the pest or weed control at 1000 g/ha in experiment [1] (setting [9]) is 100%; in experiment [2] (setting [9]), 100%; in experiment [3] (setting [9]), 100%; in experiment [4] (setting [9]), 95%; in experiment [5] (setting [9]) it was 85%; in experiment [6] (setting [9]), 75%. The pest or weed control at 1000 g/ha in experiment [7] (setting [9]) was determined as 25%. Also, the IC50 in experiment [8] (Table I) and in experiment [8] (Table II) was 27 nM throughout.
In the case of `CC(C)N(C)CC(P(=O)(O)O)P(=O)(O)O` [Compound 33], the pest or weed control at 1000 g/ha in experiment [1] (setting [9]) was 100%; in experiment [2] (setting [9]), 100%; in experiment [3] (setting [9]) it was 95%; in experiment [4] (setting [9]), 100%; in experiment [5] (setting [9]) it was 65%; in experiment [6] (setting [9]) it was 50%. Moreover, the pest or weed control at 1000 g/ha in experiment [7] (setting [9]) was 10%. Moreover, the IC50 in experiment [8] (Table I) and in experiment [8] (Table II) was 178 nM each time.
In the case of `C=C(C)CNCC(P(=O)(O)O)P(=O)(O)O` [Compound 34], the pest or weed control at 1000 g/ha turned out to be 95% in experiment [1] (setting [9]); 100% in experiment [2] (setting [9]); 95% in experiment [3] (setting [9]); 95% in experiment [4] (setting [9]); 60% in experiment [5] (setting [9]); 60% in experiment [6] (setting [9]). The pest or weed control at 1000 g/ha in experiment [7] (setting [9]) is 15%. The IC50 in experiment [8] (Table I) and in experiment [8] (Table II) was 31 nM each time.
As for `CC1CC(C)CN(CC(P(=O)(O)O)P(=O)(O)O)C1` (stereo not drawn) [Compound 35], the pest or weed control at 1000 g/ha was determined as 98% in experiment [1] (setting [9]); 25% in experiment [2] (setting [9]); 50% in experiment [3] (setting [9]); 15% in experiment [4] (setting [9]); 30% in experiment [5] (setting [9]); 0% in experiment [6] (setting [9]). In experiment [7] (setting [9]), the pest or weed control at 1000 g/ha amounted to 0%. The IC50 in experiment [8] (Table I) and in experiment [8] (Table II) was 520 nM each time.
Turning to `O=P(O)(O)C(CNNc1c(Cl)cc(C(F)(F)F)cc1Cl)P(=O)(O)O` [Compound 36], the pest or weed control at 4000 g/ha in experiment [1] (setting [10]), in experiment [2] (setting [10]), in experiment [3] (setting [10]), in experiment [4] (setting [10]), in experiment [5] (setting [10]) and in experiment [6] (setting [10]) was 0% each time. Further, in experiment [7] (setting [10]), the pest or weed control at 4000 g/ha was found to be 0%. For the same compound, the IC50 in experiment [8] (Table I) and in experiment [8] (Table II) was above 500000 nM throughout.
Regarding `C=CCN(CC=C)CC(P(=O)(O)O)P(=O)(O)O` [Compound 37], the pest or weed control at 1000 g/ha in experiment [1] (setting [9]) amounted to 95%; in experiment [2] (setting [9]), 98%; in experiment [3] (setting [9]) it was 100%; in experiment [4] (setting [9]), 95%; in experiment [5] (setting [9]), 15%; in experiment [6] (setting [9]), 10%. Further, in experiment [7] (setting [9]), the pest or weed control at 1000 g/ha was 10%. For the same compound, the half-inhibitory concentration (IC50) in experiment [8] (Table I) and in experiment [8] (Table II) was 53 nM in each case.
Regarding `CCCN(CC)CC(P(=O)(O)O)P(=O)(O)O` [Compound 38], the pest or weed control at 1000 g/ha in experiment [1] (setting [9]) came out at 100%; in experiment [2] (setting [9]), 100%; in experiment [3] (setting [9]) it was 100%; in experiment [4] (setting [9]) it was 100%; in experiment [5] (setting [9]), 90%; in experiment [6] (setting [9]), 70%. Moreover, in experiment [7] (setting [9]), the pest or weed control at 1000 g/ha was found to be 10%. Further, the IC50 in experiment [8] (Table I) and in experiment [8] (Table II) was 124 nM throughout.
